{
  "source": "paper PMC9599816",
  "about": "“Cholesterol Chip for the Study of Cholesterol–Protein Interactions Using SPR” (Biosensors, 2022)",
  "key": {"[1]": {"target": "T1, hedgehog protein, HhC (C-terminal cholesterol-binding domain) (Drosophila melanogaster, UniProt Q02936, H329A)", "T1 construct": "gene hh; HhC autoprocessing mutant, C-terminal fusion to SUMO-HIS8", "T1 sequence (Q02936 258-471 H329A)": "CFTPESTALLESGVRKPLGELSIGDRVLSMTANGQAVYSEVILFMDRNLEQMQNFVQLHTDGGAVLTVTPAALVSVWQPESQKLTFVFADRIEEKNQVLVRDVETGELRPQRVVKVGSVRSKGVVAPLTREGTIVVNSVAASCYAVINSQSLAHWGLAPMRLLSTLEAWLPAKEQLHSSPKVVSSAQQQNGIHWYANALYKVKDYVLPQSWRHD", "test": "SPR, biotinylated cholesterol immobilized on streptavidin chip, […] Langmuir fit"}, "[2]": {"target": "T2, PTP1B (Homo sapiens, UniProt P18031)", "T2 construct": "gene PTPN1", "T2 sequence (P18031 1-321)": "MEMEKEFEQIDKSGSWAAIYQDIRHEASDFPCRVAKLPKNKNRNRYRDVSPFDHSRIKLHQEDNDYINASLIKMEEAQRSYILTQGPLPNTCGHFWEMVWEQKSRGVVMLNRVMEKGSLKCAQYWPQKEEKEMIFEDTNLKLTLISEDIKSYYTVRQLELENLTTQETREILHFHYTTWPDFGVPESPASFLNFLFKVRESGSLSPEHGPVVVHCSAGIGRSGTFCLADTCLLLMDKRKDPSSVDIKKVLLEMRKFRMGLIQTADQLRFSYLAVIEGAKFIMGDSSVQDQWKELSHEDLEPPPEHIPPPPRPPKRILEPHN", "test": "biochemical"}},
  "data": [
    {"smiles": "CC(CCC[C@@H](C)[C@H]1CC[C@H]2[C@@H]3CC=C4C[C@@H](O)CC[C@]4(C)[C@H]3CC[C@]12C)c1cn(CCOCCOCCOCCNC(=O)CCCCC2SCC3NC(=O)NC32)nn1", "note": "(some centres unmarked) [biotinylated cholesterol]", "values": [
      {"measurement": "Kd", "setting": "[1]", "value": "~14", "unit": "nM"},
      {"measurement": "Kd", "setting": "[2]", "value": "~85", "unit": "nM"}
    ]}
  ]
}
